According to patent US7531500B2, “Preventing airway mucus production by administration of EGF-R antagonists” (The Regents of the University of California, priority 1998, dated 2009):

What was measured:
pathogen-free rats [1] = assay: IL-13-induced goblet cell metaplasia in rat airways; format: in vivo; conditions: pretreatment
Method: Animals were anesthetized with pentobarbital [Nembutal sodium, 50 mg/kg, intraperitoneally (ip), Abbott Laboratories, North Chicago, Ill.] and allowed to breathe spontaneously. Vehicle (phosphate buffer solution, PBS) or IL-13 was instilled intratracheally via a 20-gauge Angiocath catheter (Beckton Dickinson, Sandy, Utah) through the mouth, while the laryngeal area was visualized using a high-intensity illuminator (FiberLite; Dolan Jenner Industries, Inc., Lawrence, Mass.). The […] tissues were examined 48 hours after instillation of IL-13. Various concentrations of IL-13 (recombinant murine IL-13; 5, 50, 100, and 500 ng/rat, R&D systems, Minneapolis, Minn.) were instilled into the trachea in […]. Sterile PBS (200 μl) was instilled into the trachea as controls. For examination of the relationship between IL-13-induced GC metaplasia and activation of EGFR, animals were pretreated 1 d before instillation of IL-13 and daily thereafter with a selective EGFR tyrosine kinase inhibitor (BIBX 1522; 1-30 mg/kg/day, ip; Boehringer Ingelheim, Ingelheim, Germany). Animals were euthanized 48 hours after instillation of IL-13. In preliminary studies, we noted that IL-13 causes leukocyte recruitment into the airways. We hypothesized that leukocyte recruitment results from IL-13-induced chemoattractant release from epithelium, and that this recruitment is involved in the IL-13-induced EGFR cascade leading to GC metaplasia. Groups of animals were euthanized 4, 8, 16, 24, and 48 hours after instillation of IL-13 (500 ng), and leukocytes were counted in airway tissue. […] Sigma chemical Co., St Louis, Mo.] or with a blocking antibody to interleukin-8 (IL-BAb; rabbit anti-human IL-8 antibody; Biosource, Camarillo, Calif.). […] In another series of studies, we instilled IL-8 Ab (10 μg/rat) intratracheally, along with IL-13; we repeated the instillation of anti-human IL-8 blocking antibody at 12 hour intervals until the animals were euthanized. Animals were euthanized with a lethal dose of pentobarbital (Nembutal sodium, 200 mg/kg, ip, Abbott Laboratories, North Chicago, Ill.), and the systemic circulation was perfused with 1% paraformaldehyde in Diethylpyrocarbonate (DEPC, Sigma chemical Co., St Louis, Mo.)-treated PBS via the left ventricle. For frozen sections, […] tissues were removed, placed in 4% paraformaldehyde overnight, and then placed in 30% sucrose for cryoprotection. The tissues were embedded in optimal cutting temperature (OCT, […]., Inc., Torrance, Calif.) compound. For plastic or paraffin sections, tissues were placed in 4% paraformaldehyde overnight, dehydrated with ethanol, and embedded in JB-4 plus monomer solution A (Polysclences, Inc., Warrington, Pa.) or in paraffin. The embedded tissues were cut as cross sections 4 μm thick and placed on glass slides. In all studies, the carina was examined to obtain consistent sampling. We measured AB/PAS-positive areas and total epithelial area, and we expressed the results as the percentage of AB/PAS area to total epithelial area. The analysis was performed with the public domain NIH IMAGE program (developed at the U.S. National Institutes of Health and available by anonymous FTP from zippy.nimh.gov. or floppy disk from the National Technical Information Service, Springfield, Va., part number PB95-500195GEI). […] For immunohistochemical localization of […], we used mouse anti-human IL-8 antibody (1:20; Biosource, Camarillo, Calif.). The sections were then incubated with biotinylated horse anti-mouse IgG (Vector Laboratories, Burlingame, Calif.) at 1:200 dilution for 1 hour at room temperature. Bound antibody was visualized according to standard protocols for avidin-biotin-peroxidase complex method. The measurement of MUC5AC protein also utilized the same method used for quantitative measurement of GC metaplasia in the epithelium. Animals were euthanized 4, 8, 16, 24, and 48 hours after instillation of IL-13 (500 ng), and leukocytes were counted in airway tissue. […]

pathogen-free rats [2] = assay: Agarose plug-induced goblet cell metaplasia in pathogen-free rats; format: in vivo, rat
Method: Protocol of experiments. We studied pathogen-free rats, because they normally have few goblet cells in airways. The animals were anesthetized with methohexital sodium (Brevital, 25 mg/kg, i.p.). The trachea was exposed aseptically with a midline cervical incision, and agarose plugs were instilled into a bronchus via a 20 gauge Angiocath (Becton Dikinson, Sandy, Utah) connected to polyethylene tubing (PE 90, internal diameter 0.86 mm and outer diameter 1.27 mm, Clay Adams, Parsippany, N.Y.) threaded into the incised trachea. The polyethylene tube was bent at a 30° angle to allow selective instillation into the right bronchus. After instillation, the incision was closed with a suture.
To evaluate the role of EGF-R on agarose plug-induced goblet cell metaplasia, animals were treated with BIBX1522 (80 mg/kg, i.p.) 1 h before instillation of the agarose plugs and repeated daily (40 mg/kg, i.p., bid). Animals were euthanized 24, 48 or 72 h after instillation of the agarose plugs.
The first treatment (100 μl in 0.2 ml saline, i.p.) was given 1 h before the instillation of agarose plugs, and i.p. injections were repeated daily.
To study the effect of neutrophils on agarose plug-induced goblet cell metaplasia, rats were pretreated with cyclophosphamide (an inhibitor of bone marrow leukocytes) or with a combination of cyclophosphamide plus NPC 15669. Cyclophosphnamide (100 mg/kg, i.p.) was given 5 d before instillation of agarose plugs, and a second injection of cyclophosphamide (50 mg/kg, i.p.) was given 1 d before instillation of plugs. In studies with NPC 15669, the drug (10 mg/kg, i.p.) was injected 1 h before instillation of agarose plugs, and then daily for 3 d thereafter.
Tissue preparation. At various times after agarose plug instillation, rats were anesthetized with sodium pentobarbital (65 mg/kg, i.p.), the systemic circulation was perfused with 1% paraformaldehyde in diethyl pyrocarbonate-treated PBS at a pressure of 120 mmHg. The right lung was removed, and the right caudal lobe was used for histology. For frozen sections, tissues were removed and placed in 4% paraformaldehyde for 1 h and then replaced in 30% sucrose for cryoprotection overnight. The tissues were embedded in O.C.T. compound (Sakura Finetek U.S.A., Inc., Torrance, Calif.). For methacrylate sections, the tissues were placed in 4% paraformaidehyde for 24 h and then dehydrated with graded concentrations of ethanol and embedded in methacrylate JB-4 (Polysciences, Inc., Warrington, Pa.). Tissue sections (4 μm thick) were stained with Alcian blue/PAS and counterstained with hematoxylin.
Morphoometric analysis of bronchial epithelium. The percentage of Alcian blue/PAS-stained area of mucous glycoconjugates in the epithelium was determined using a semi-automatic image analysis system according to previously published methods. The area of epithelium and Alcian blue/PAS-stained mucous conjugates within the epithelium was manually circumscribed and analyzed using the NIH Image program (developed at the U.S. National Institutes of health and available from the internet by ananymous FTP or from a floppy disk from the National Technical Information Service, Springfield, Va.; part number PB95-500195GEI). The data are expressed as the percentage of the total epithelial area occupied by Alcian blue/PAS stain. […] The percentage of denuded epithelium was determined by calculating the ratio of the length of denuded epithelium to the total epithelial length.
Identification of cell types in methacrylate sections and cell analysis. The total number of epithelial cells was determined by counting epithelial cell nuclei over 2 mm of the basal lamina with an oil immersion objective lens (×1000 magnification). The linear length of the basal lamina under each analyzed region of epithelium was determined by tracing the contour of the digitalized image of the basal lamina. The epithelia; cells were identified as described previously.

Structure (SMILES): O=P1(N(CCCl)CCCl)NCCCO1 (stereo not shown) [cyclophosphamide]
- IL-13-induced TNFα expression (pathogen-free rats [1]): prevented
- IL-13-induced leukocyte recruitment into airways (pathogen-free rats [1]): inhibited
- IL-13-induced mucin production (pathogen-free rats [1]): prevented
- neutrophil count in venous blood (pathogen-free rats [2]; after cyclophosphamide 100 mg/kg then 50 mg/kg i.p., n=5): 1.8±0.5%
- agarose plug-induced EGF-R protein expression (pathogen-free rats [2]; rat, in vivo): inhibited
- agarose plug-induced goblet cell metaplasia (Alcian blue/PAS-positively stained cells) (pathogen-free rats [2]; rat, in vivo): inhibited
- macrophage recruitment after agarose plugs (pathogen-free rats [2]; rat, in vivo): did not inhibit
- plug-induced neutrophil recruitment in BAL (pathogen-free rats [2]; rat, in vivo): inhibited
- number of neutrophils in the airway lumen (pathogen-free rats [2]; treated rats with plugs, 24 h): 2.6±0.3 /mm of basal lamina
- number of neutrophils in the epithelium (pathogen-free rats [2]; treated rats with plugs, 24 h): 0.8±0.2 /mm
